Data as given in patent EP0090736A1, “Steroidal nitroso ureum with oncostatic activity, process for its preparation and its use as a medicine” (Etablissement Public dit: CENTRE NATIONAL DE LA RECHERCHE …, priority 1982, dated 1983).

Experiments:
leucémie L1210 = assay: Oncostatic activity on L1210 leukemia in mice (survival T/C); format: in vivo, souris (DBA2 - C57BL 100); conditions: for Dose optimale: L1210 leukemia, 10^5 cells i.p., treatment on days 1, 5 and 9, suspension in olive oil
From the text: Le composé selon la présente invention a été étudié sur la leucémie L1210 en comparaison avec d'autres nitrosourées présentant également des propriétés oncostatiques. Il s'agit essentiellement de la BCNU, la CCNU, la Me CCNU, la RFCNU, la RPCNU et la Chlorozotocine. Ces composés, ainsi que le XPCNU, sont bien connus et décrits par exemple dans Biomedicine Express, vol. 23, n° 10 du 10 décembre 1975, pages 410-413.
Pour chaque composé, 10^5 cellules leucémiques ont été inoculées à 80 souris (DBA2 - C57BL 100), par voie intrapéritonéale.
Les traitements ont débuté un jour après la transplantation et ont été poursuivis les cinquième et neuvième jours. Les dérivés devant être testés sont administrés en suspension dans l'huile d'olive à 70 souris. Les doses injectées sont variables, chaque souris étant pesée individuellement. Les 10 souris restantes constituent le groupe témoin et reçoivent, en placébo, des volumes équivalents d'huile d'olive.
Le premier jour, les nitrosourées testées sont administrées, en doses variables, aux souris traitées.
Les cinquième et neuvième jours, les injections sont renouvelées sans signe macroscopique de toxicité.
Pour chaque composé, les activités oncostatiques ont été déterminées pour une dose spécifique et varient en fonction de la quantité administrée. Lorsque l'activité oncostatique est supérieure à 125 et si la différence des groupes témoins et traités à une signification statistique (test de WILCOXON), le composé est considéré comme étant actif à la dose utilisée.
La figure ci-annexée indique en fonction des doses de principe actif appliquées en milligramme par kilogramme le rapport T/C défini comme suit : T/C = moyenne de survie des groupes traités / moyenne de survie des groupes témoins x 100
La mention ∞ indique que plus de 50 % des animaux traités sont guéris.

Acute toxicity (DL50) = format: in vivo
Experimental: On a, en outre, indiqué ci-après dans le tableau pour les composés connus et pour le composé selon la présente invention les MEDI, c'est-à-dire les doses médianes, les doses optimums les DL50 et par là l'index thérapeutique de ces composés.
On constate qu'à l'activité déterminée précédemment s'ajoute la dose médiane la plus grande jamais observée et une DL50 aiguë de 700 mg/kg qui est la plus avantageuse parmi toutes les autres nitrosourées, ce qui conduit à l'indice thérapeutique le plus élevé jamais obtenu jusqu'à présent pour ce type de composé oncostatique.

[1] = derived from DL50 and optimal dose on L1210

O=NN(CCCl)C(=O)N[C@H]1C(O)O[C@H](CO)[C@@H](O)[C@@H]1O (some centres unmarked) [CZT, Chlorozotocine]
Dose optimale (leucémie L1210): 15 mg/kg | DL50 (Acute toxicity (DL50); acute DL50): 35 mg/kg | Index thérapeutique (Acute toxicity (DL50); [1]): 2,33

C[C@]12CC[C@H]3[C@@H](CC=C4C[C@@H](O)CC[C@@]43C)[C@@H]1CC[C@@H]2NC(=O)N(CCCl)N=O [Composé ex. 1, 17β-(N-2-chloroéthyl-N'-nitrosouréyl)-5-androsten-3β-ol]
Dose optimale (leucémie L1210): 125 mg/kg | activité oncostatique (T/C) (leucémie L1210; T/C = mean survival treated / mean survival controls x 100, as a function of dose (figure), compared with other nitrosoureas): la meilleure activité oncostatique | LD50 (Acute toxicity (DL50); in vivo, acute DL50): 700 mg/kg | selectivity ratio (Acute toxicity (DL50); mouse, in vivo, derived from DL50 and optimal dose on L1210, read-out: Index thérapeutique): 5.6

CC1(C)O[C@@H]2[C@@H](COC(=O)c3ccc([N+](=O)[O-])cc3)OC(NC(=O)N(CCCl)N=O)[C@@H]2O1 (some centres unmarked) [RFCNU]
Dose optimale (leucémie L1210): 20 mg/kg | DL50 (Acute toxicity (DL50); acute DL50): 90 mg/kg | Index thérapeutique (Acute toxicity (DL50); [1]): 4,5

CC(=O)O[C@@H]1[C@H](OC(C)=O)COC(NC(=O)N(CCCl)N=O)[C@@H]1OC(C)=O (some centres unmarked) [RPCNU]
Dose optimale (leucémie L1210): 15 mg/kg | DL50 (Acute toxicity (DL50); acute DL50): 50 mg/kg | Index thérapeutique (Acute toxicity (DL50); [1]): 3,3

CC(=O)OC1COC(NC(=O)N(CCCl)N=O)C(OC(C)=O)C1OC(C)=O (centres unmarked) [XPCNU]
Dose optimale (leucémie L1210): 15 mg/kg
